Numbered stars: 1 amine (or outer) side, 2 acyl side, 3 side chain; on linkers, the order of the positions; unused ones are H or OH. Side chains are listed from the residue outwards. Peptide text beside a SMILES is read from it. * marks the point of attachment. C18 diacid = O=C(O)CCCCCCCCCCCCCCCCC(=O)*; C16 diacid = O=C(O)CCCCCCCCCCCCCCC(=O)*; γGlu = O=C(O)[C@H](CCC(=O)[*:2])N[*:1]; AEEA = NCCOCCOCC(=O)O
Biological target: T1, glucagon receptor (Homo sapiens, UniProt P47871)
T1 construct: expressed in transfected cells
Experiment: Assay (I) Glucagon activity (cAMP biosensor, FLIPR)
Type: cell-based
Description: The cells (14000 per well) were incubated (37° C., 5% CO2) overnight in 384-well plates. Next day the cells were loaded with a calcium responsive dye that only distributed into the cytoplasm. Probenecid, an inhibitor of the organic anion transporter, was added to prevent the dye from leaving the cell. A PDE inhibitor was added to prevent formatted cAMP from being degraded. The plates were placed into a […] and the glucagon analogues were added. End point data were collected after 6 minutes. An increase in intracellular cAMP was proportional to an increased in calcium concentrations in the cytoplasm. When calcium was bound the dry a fluorescence signal was generated. EC50-values were calculated in Prism5.

T1 sequence (P47871 26-477): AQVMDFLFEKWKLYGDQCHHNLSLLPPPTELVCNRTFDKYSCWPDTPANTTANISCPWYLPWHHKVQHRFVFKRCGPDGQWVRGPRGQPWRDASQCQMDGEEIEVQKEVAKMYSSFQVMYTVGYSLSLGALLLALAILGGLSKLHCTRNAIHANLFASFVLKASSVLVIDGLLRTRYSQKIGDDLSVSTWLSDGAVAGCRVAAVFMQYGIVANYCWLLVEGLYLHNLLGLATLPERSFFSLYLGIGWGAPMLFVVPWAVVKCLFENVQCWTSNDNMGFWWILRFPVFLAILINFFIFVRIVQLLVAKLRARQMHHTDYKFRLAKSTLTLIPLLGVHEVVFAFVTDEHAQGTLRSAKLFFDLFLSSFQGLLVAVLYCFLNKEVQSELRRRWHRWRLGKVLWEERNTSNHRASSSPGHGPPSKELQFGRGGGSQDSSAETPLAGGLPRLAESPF

SMILES	EC50 [nM]
CC(C)C[C@H](NC(=O)[C@H](CC(=O)O)NC(=O)[C@H](CC(C)C)NC(=O)[C@H](Cc1ccc(O)cc1)NC(=O)[C@H](CCCNC(=N)N)NC(=O)[C@H](CO)NC(=O)[C@H](Cc1ccc(O)cc1)NC(=O)[C@H](CC(=O)O)NC(=O)[C@H](CO)NC(=O)[C@@H](NC(=O)[C@H](Cc1ccccc1)NC(=O)[C@@H](NC(=O)CNC(=O)[C@H](CCC(N)=O)NC(=O)[C@H](CO)NC(=O)[C@@H](N)Cc1c[nH]cn1)[C@@H](C)O)[C@@H](C)O)C(=O)N[C@@H](CCCNC(=N)N)C(=O)N[C@@H](CCCNC(=N)N)C(=O)N[C@@H](C)C(=O)N[C@@H](CCC(N)=O)C(=O)N[C@@H](CC(=O)O)C(=O)N[C@@H](Cc1ccccc1)C(=O)N[C@H](C(=O)N[C@@H](CCCCNC(=O)CC[C@H](NC(=O)CC[C@H](NC(=O)CC[C@H](NC(=O)CCCCCCCCCCCCCCC(=O)O)C(=O)O)C(=O)O)C(=O)O)C(=O)N[C@@H](Cc1c[nH]c2ccccc12)C(=O)N[C@@H](CC(C)C)C(=O)N[C@@H](CC(C)C)C(=O)N[C@@H](CO)C(=O)N[C@H](C(=O)O)[C@@H](C)O)C(C)C [Example 91, N^ε24-[(4S)-4-carboxy-4-[[(4S)-4-carboxy-4-[[(4S)-4-carboxy-4-(15-carboxypentadecanoylamino)butanoyl]amino]butanoyl]amino]butanoyl]-[Arg12,Leu16,Lys24,Leu27,Ser28]-Glucagon] (H-HSQGTFTSDYSRYLDLRRAQDFVK([γGlu-γGlu-γGlu-C16 diacid])WLLST-OH)	0.027
CC(C)C[C@H](NC(=O)[C@H](CC(N)=O)NC(=O)[C@H](CC(C)C)NC(=O)[C@H](CC(C)C)NC(=O)[C@H](Cc1c[nH]c2ccccc12)NC(=O)[C@H](CCCCNC(=O)CC[C@H](NC(=O)COCCOCCNC(=O)COCCOCCNC(=O)CC[C@H](NC(=O)CCCCCCCCCCCCCCCCC(=O)O)C(=O)O)C(=O)O)NC(=O)[C@@H](NC(=O)[C@H](Cc1ccccc1)NC(=O)[C@H](CC(=O)O)NC(=O)[C@H](CCC(N)=O)NC(=O)[C@H](C)NC(=O)[C@H](CCCNC(=N)N)NC(=O)[C@H](CCCNC(=N)N)NC(=O)[C@H](CO)NC(=O)[C@H](CCC(=O)O)NC(=O)[C@H](CC(C)C)NC(=O)[C@H](Cc1ccc(O)cc1)NC(=O)[C@H](CCCCN)NC(=O)[C@H](CO)NC(=O)[C@H](Cc1ccc(O)cc1)NC(=O)[C@H](CC(=O)O)NC(=O)[C@H](CO)NC(=O)[C@@H](NC(=O)[C@H](Cc1ccccc1)NC(=O)[C@@H](NC(=O)CNC(=O)[C@H](CCC(N)=O)NC(=O)[C@H](CO)NC(=O)[C@@H](N)Cc1c[nH]cn1)[C@@H](C)O)[C@@H](C)O)C(C)C)C(=O)O [Example 34, N^ε24-[(4S)-4-carboxy-4-[[2-[2-[2-[[2-[2-[2-[[(4S)-4-carboxy-4-(17-carboxyheptadecanoylamino)butanoyl]amino]ethoxy]ethoxy]acetyl]amino]ethoxy]ethoxy]acetyl]amino]butanoyl]-[Glu15,Lys24,Leu27,Leu29]-Glucagon]	1.9
CC[C@H](C)[C@H](NC(=O)[C@H](CC(N)=O)NC(=O)[C@H](CC(C)C)NC(=O)[C@H](CC(C)C)NC(=O)[C@H](Cc1c[nH]c2ccccc12)NC(=O)[C@H](CCCCNC(=O)CC[C@H](NC(=O)COCCOCCNC(=O)COCCOCCNC(=O)CC[C@H](NC(=O)CCCCCCCCCCCCCCCCC(=O)O)C(=O)O)C(=O)O)NC(=O)[C@@H](NC(=O)[C@H](Cc1ccccc1)NC(=O)[C@H](CC(=O)O)NC(=O)[C@H](CCC(N)=O)NC(=O)[C@H](C)NC(=O)[C@H](CCCNC(=N)N)NC(=O)[C@H](CCCNC(=N)N)NC(=O)[C@H](CO)NC(=O)[C@H](CCC(=O)O)NC(=O)[C@H](CC(C)C)NC(=O)[C@H](Cc1ccc(O)cc1)NC(=O)[C@H](CCCCN)NC(=O)[C@H](CO)NC(=O)[C@H](Cc1ccc(O)cc1)NC(=O)[C@H](CC(=O)O)NC(=O)[C@H](CO)NC(=O)[C@@H](NC(=O)[C@H](Cc1ccccc1)NC(=O)[C@@H](NC(=O)CNC(=O)[C@H](CCC(N)=O)NC(=O)[C@H](CO)NC(=O)[C@@H](N)Cc1c[nH]cn1)[C@@H](C)O)[C@@H](C)O)C(C)C)C(=O)O [Example 32, N^ε24-[(4S)-4-carboxy-4-[[2-[2-[2-[[2-[2-[2-[[(4S)-4-carboxy-4-(17-carboxyheptadecanoylamino)butanoyl]amino]ethoxy]ethoxy]acetyl]amino]ethoxy]ethoxy]acetyl]amino]butanoyl]-[Glu15,Lys24,Leu27,Ile29]-Glucagon]	1.12
CC(C)C[C@H](NC(=O)[C@H](Cc1ccc(O)cc1)NC(=O)[C@H](CCCCN)NC(=O)[C@H](CO)NC(=O)[C@H](Cc1ccc(O)cc1)NC(=O)[C@H](CC(=O)O)NC(=O)[C@H](CO)NC(=O)[C@@H](NC(=O)[C@H](Cc1ccccc1)NC(=O)[C@@H](NC(=O)CNC(=O)[C@H](Cc1c[nH]cn1)NC(=O)[C@H](CO)NC(=O)[C@@H](N)Cc1c[nH]cn1)[C@@H](C)O)[C@@H](C)O)C(=O)N[C@@H](CC(=O)O)C(=O)N[C@@H](CO)C(=O)N[C@@H](CCCNC(=N)N)C(=O)N[C@@H](CCCNC(=N)N)C(=O)N[C@@H](C)C(=O)N[C@@H](CCCCN)C(=O)N[C@@H](CC(=O)O)C(=O)N[C@@H](Cc1ccccc1)C(=O)N[C@H](C(=O)N[C@@H](CCCCNC(=O)CC[C@H](NC(=O)CC[C@H](NC(=O)COCCOCCNC(=O)COCCOCCNC(=O)CC[C@H](NC(=O)CCCCCCCCCCCCCCCCC(=O)O)C(=O)O)C(=O)O)C(=O)O)C(=O)N[C@@H](Cc1c[nH]c2ccccc12)C(=O)N[C@@H](CC(C)C)C(=O)N[C@@H](CC(C)C)C(=O)N[C@@H](CO)C(=O)N[C@H](C(=O)O)[C@@H](C)O)C(C)C [Example 3, N^ε24-[(4S)-4-carboxy-4-[[(4S)-4-carboxy-4-[[2-[2-[2-[[2-[2-[2-[[(4S)-4-carboxy-4-(17-carboxyheptadecanoylamino)butanoyl]amino]ethoxy]ethoxy]acetyl]amino]ethoxy]ethoxy]acetyl]amino]butanoyl]amino]butanoyl]-[His^3,Lys^20,Lys^24,Leu^27,Ser^28]-Glucagon] (H-HSHGTFTSDYSKYLDSRRAKDFVK([γGlu-γGlu-AEEA-AEEA-γGlu-C18 diacid])WLLST-OH)	0.249
CC(C)C[C@H](NC(=O)[C@H](Cc1ccc(O)cc1)NC(=O)[C@H](CCCNC(=N)N)NC(=O)[C@H](CO)NC(=O)[C@H](Cc1ccc(O)cc1)NC(=O)[C@H](CC(=O)O)NC(=O)[C@H](CO)NC(=O)[C@@H](NC(=O)[C@H](Cc1ccccc1)NC(=O)[C@@H](NC(=O)CNC(=O)[C@H](CCC(N)=O)NC(=O)[C@H](CO)NC(=O)[C@@H](N)Cc1c[nH]cn1)[C@@H](C)O)[C@@H](C)O)C(=O)N[C@@H](CCC(=O)O)C(=O)N[C@@H](CO)C(=O)N[C@@H](CCCNC(=N)N)C(=O)N[C@@H](CCCNC(=N)N)C(=O)N[C@@H](C)C(=O)N[C@@H](CCC(N)=O)C(=O)N[C@@H](CCC(=O)O)C(=O)N[C@@H](Cc1ccccc1)C(=O)N[C@H](C(=O)N[C@@H](CCCCNC(=O)CC[C@H](NC(=O)CC[C@H](NC(=O)COCCOCCNC(=O)COCCOCCNC(=O)CC[C@H](NC(=O)CCCCCCCCCCCCCCCCC(=O)O)C(=O)O)C(=O)O)C(=O)O)C(=O)N[C@@H](Cc1c[nH]c2ccccc12)C(=O)N[C@@H](CC(C)C)C(=O)N[C@@H](CCC(=O)O)C(=O)N[C@@H](CO)C(=O)N[C@H](C(=O)O)[C@@H](C)O)C(C)C [Example 55, N^ε24-[(4S)-4-carboxy-4-[[(4S)-4-carboxy-4-[[2-[2-[2-[[2-[2-[2-[[(4S)-4-carboxy-4-(17-carboxyheptadecanoylamino)butanoyl]amino]ethoxy]ethoxy]acetyl]amino]ethoxy]ethoxy]acetyl]amino]butanoyl]amino]butanoyl]-[Arg12,Glu15,Glu21,Lys24,Glu27,Ser28]-Glucagon] (H-HSQGTFTSDYSRYLESRRAQEFVK([γGlu-γGlu-AEEA-AEEA-γGlu-C18 diacid])WLEST-OH)	1.09

Source: patent US9486506B2 (Novo Nordisk A/S, priority 2011, dated 2016)
